Data reported in patent US9084765B2, “Use of amisulpride as an anti-emetic” (Acacia Pharma Limited, priority 2010, dated 2015).
Entries after “also recorded” stand apart in the source; their conditions may differ.

Tests used:
[1] = test system: apomorphine-induced vomiting in the dog; conditions: reported in U.S. Pat. No. 4,294,828; cited from earlier work
[2] = reported in the UKPAR (Special Warnings and Precautions for Use); cited from earlier work
[3] = test system: ferrets challenged with morphine; assay: Morphine-induced emesis in ferrets; type: in vivo, ferret
Protocol: (§1) Amisulpride, white powder, was dissolved in dimethylsulfoxide and then diluted in physiological saline. For vehicle control, physiological saline was used for s,c, administration (apomorphine experiments) and 8.3% DMSO in physiological saline was used for i.v. administration (morphine, cisplatin). Morphine hydrochloride, white powder, was dissolved in physiological saline. The method used to test antiemetic activity preclinically follows that described by Gardner et al. (Brit. J. Pharmacol., 116: 3158-3163, 1995) and uses ferrets. Sixty minutes before administration of the test substance, ferrets are placed in individual stainless steel cages (40×50×34 cm) with a grid floor. Then, the animals are challenged with apomorphine (0.25 mg/kg s.c.), morphine (0.4 mg/kg i.p.) or cisplatin (10 mg/kg i.p.) and immediately observed over at least a 2-hour period. Parameters recorded include: number of ferrets showing retches and vomits; latency to first retching; latency to first vomiting; number of retches; vomiting (number of vomits); number of emesis periods and mean duration of emesis periods. Retching is defined as a rhythmic respiratory movement against a closed glottis, while vomiting is defined as a forced expulsion of upper gastrointestinal contents. […]

[4] = test system: ferrets challenged with apomorphine; assay: Apomorphine-induced emesis in ferrets; type: in vivo, ferret; conditions: 2 hour observation
Protocol: as §1, with “Apomorphine hydrochloride hemihydrates,” for “Morphine hydrochloride,”

[5] = test system: ferrets challenged with cisplatin; assay: Cisplatin-induced emesis in ferrets; type: in vivo, ferret
Protocol: Amisulpride, white powder, was dissolved in dimethylsulfoxide and then diluted in physiological saline. For vehicle control, physiological saline was used for s,c, administration (apomorphine experiments) and 8.3% DMSO in physiological saline was used for i.v. administration (morphine, cisplatin). […] Cisplatinum II diamine dichloride, yellow powder, was dispersed in 0.2% hydroxymethylcellulose in physiological saline. The method used to test antiemetic activity preclinically follows that described by Gardner et al. (Brit. J. Pharmacol., 116: 3158-3163, 1995) and uses ferrets. Sixty minutes before administration of the test substance, ferrets are placed in individual stainless steel cages (40×50×34 cm) with a grid floor. Then, the animals are challenged with apomorphine (0.25 mg/kg s.c.), morphine (0.4 mg/kg i.p.) or cisplatin (10 mg/kg i.p.) and immediately observed over at least a 2-hour period. Parameters recorded include: number of ferrets showing retches and vomits; latency to first retching; latency to first vomiting; number of retches; vomiting (number of vomits); number of emesis periods and mean duration of emesis periods. Retching is defined as a rhythmic respiratory movement against a closed glottis, while vomiting is defined as a forced expulsion of upper gastrointestinal contents. […]

## CCN1CCCC1CNC(=O)c1cc(S(=O)(=O)CC)c(N)cc1OC (centres unmarked) [Amisulpride]
[1]
  apomorphine-induced vomiting: inhibit apomorphine-induced vomiting in the dog
[2]
  prolongation of the QT interval: induces a dose dependent prolongation of the QT interval
[3]; amisulpride 3 mg/kg i.v. before morphine 0.4 mg/kg i.p.
  incidence of vomits: abolished
[3]; i.v. 5 minutes before morphine, 2 hour observation, versus vehicle control
  effect on emetic effects induced by morphine: reduces the emetic effects induced by morphine, in dose-dependent manner
[4]; amisulpride 10 μg/kg s.c.
  effect on apomorphine emesis: totally inhibited
[4]; amisulpride 100 μg/kg s.c.
  effect on apomorphine emesis: totally inhibited
[5]; amisulpride 0.6 mg/kg (one animal excluded) and 2 mg/kg versus droperidol 3 mg/kg given 5 minutes before cisplatin
  efficacy compared with droperidol: better than droperidol at 3 mg/kg; also recorded: more effective than droperidol at 3 mg/kg
[5]; i.v. before cisplatin, 72 hour period, versus vehicle control
  effect on emetic effects of cisplatin: reduces the emetic effects of cisplatin, in dose-dependent manner
